# Data taken from ChEMBL document CHEMBL1201862, “PubChem BioAssay data set” (2004).
# The source made the active and inactive calls.
# Tests used:
# [1] = viability of HCT116 lacking mutant beta-catenin – cell-based, human colon tumor, dose response (AID 1045); assay type: functional;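 note: HCT116 colon tumor cells with beta catenin knocked out; cells exposed to compound for 60 hours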
# [2] = target: Voltage-dependent T-type calcium channel subunit alpha-1H (Homo sapiens, UniProt O95180); assay type: functional;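 note: channel activity triggered by adding a high calcium stimulation buffer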
# [3] = general mammalian cell viability loss – inhibitor set, cherry-pick, set 2, cytotoxicity control for miR-122 modulator project, dose response (AID 720697); assay type: functional, cell-based
# [4] = general mammalian cell viability loss – activator set, cherry-pick, cytotoxicity control for miR-122 modulator project, dose response (AID 720690); assay type: functional, cell-based;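 note: HEK293T human cells scored for general mammalian cytotoxicity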
# [5] = viability of PTEN-deleted HCT116 cells – cell-based, HCT116 PTEN knockout, dose response (AID 1047); assay type: functional;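 note: HCT116 colon tumor cells with PTEN knocked out; cells exposed to compound for 60 hours before readout; potency for loss of cell viability measured by luminescence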
# [6] = target: T1, Replicative DNA helicase DnaB (Mycobacterium tuberculosis, UniProt P9WMR3); test: DnaB intein splicing inhibitors, dose response, biochemical, cell-free fluorescence (AID 449749); assay type: functional
# T1 sequence (P9WMR3 whole entry): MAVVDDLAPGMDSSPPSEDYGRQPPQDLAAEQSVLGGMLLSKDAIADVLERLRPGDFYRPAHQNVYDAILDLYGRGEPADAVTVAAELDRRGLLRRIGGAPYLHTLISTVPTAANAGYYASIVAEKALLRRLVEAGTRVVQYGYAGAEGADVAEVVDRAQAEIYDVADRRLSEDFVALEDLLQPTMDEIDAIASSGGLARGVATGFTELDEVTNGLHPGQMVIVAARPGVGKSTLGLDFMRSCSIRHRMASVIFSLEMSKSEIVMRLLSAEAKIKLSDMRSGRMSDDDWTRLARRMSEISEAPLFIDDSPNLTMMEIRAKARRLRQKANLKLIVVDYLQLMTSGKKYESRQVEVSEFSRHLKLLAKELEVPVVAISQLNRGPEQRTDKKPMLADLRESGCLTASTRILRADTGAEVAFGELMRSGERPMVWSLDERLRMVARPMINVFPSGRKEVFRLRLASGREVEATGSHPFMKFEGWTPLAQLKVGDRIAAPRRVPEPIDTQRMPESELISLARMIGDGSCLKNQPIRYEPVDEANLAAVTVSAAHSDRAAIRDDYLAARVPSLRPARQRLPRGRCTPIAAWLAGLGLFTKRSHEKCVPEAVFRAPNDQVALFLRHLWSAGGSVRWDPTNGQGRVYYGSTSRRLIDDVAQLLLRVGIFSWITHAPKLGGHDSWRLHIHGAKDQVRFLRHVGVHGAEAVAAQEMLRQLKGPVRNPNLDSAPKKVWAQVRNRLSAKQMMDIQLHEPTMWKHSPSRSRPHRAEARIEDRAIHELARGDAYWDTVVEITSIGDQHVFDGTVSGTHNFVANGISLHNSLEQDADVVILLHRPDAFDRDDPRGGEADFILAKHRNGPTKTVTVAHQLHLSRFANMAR
# [7] = target: T2, Tyrosyl-DNA phosphodiesterase 2 (Homo sapiens, UniProt O95551); test: potency against TDP2 phosphodiesterase activity – biochemical, epi absorbance, IC50, dose response (AID 743297)
# T2 sequence (O95551 whole entry): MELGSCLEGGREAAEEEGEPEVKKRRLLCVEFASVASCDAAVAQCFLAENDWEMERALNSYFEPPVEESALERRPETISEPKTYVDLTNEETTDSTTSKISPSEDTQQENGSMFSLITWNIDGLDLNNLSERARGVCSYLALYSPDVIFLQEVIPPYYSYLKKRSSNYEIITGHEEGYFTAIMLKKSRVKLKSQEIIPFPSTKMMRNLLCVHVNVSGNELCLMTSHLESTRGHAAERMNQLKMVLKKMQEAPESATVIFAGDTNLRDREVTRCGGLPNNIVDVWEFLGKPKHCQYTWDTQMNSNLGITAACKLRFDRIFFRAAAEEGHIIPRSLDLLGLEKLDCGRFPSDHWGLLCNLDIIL
# Protein RecA = target: T3, Protein RecA (Mycobacterium tuberculosis, UniProt P9WHJ3); test: Fluorescence Cell-Free Homogeneous Dose Retest to Identify Inhibitors of RecA-Intein Splicing Activity. [Related pubchem assays (depositor defined):AID2097, AID2223, AID489010, AID492950]; assay type: functional
# T3 sequence (P9WHJ3 whole entry): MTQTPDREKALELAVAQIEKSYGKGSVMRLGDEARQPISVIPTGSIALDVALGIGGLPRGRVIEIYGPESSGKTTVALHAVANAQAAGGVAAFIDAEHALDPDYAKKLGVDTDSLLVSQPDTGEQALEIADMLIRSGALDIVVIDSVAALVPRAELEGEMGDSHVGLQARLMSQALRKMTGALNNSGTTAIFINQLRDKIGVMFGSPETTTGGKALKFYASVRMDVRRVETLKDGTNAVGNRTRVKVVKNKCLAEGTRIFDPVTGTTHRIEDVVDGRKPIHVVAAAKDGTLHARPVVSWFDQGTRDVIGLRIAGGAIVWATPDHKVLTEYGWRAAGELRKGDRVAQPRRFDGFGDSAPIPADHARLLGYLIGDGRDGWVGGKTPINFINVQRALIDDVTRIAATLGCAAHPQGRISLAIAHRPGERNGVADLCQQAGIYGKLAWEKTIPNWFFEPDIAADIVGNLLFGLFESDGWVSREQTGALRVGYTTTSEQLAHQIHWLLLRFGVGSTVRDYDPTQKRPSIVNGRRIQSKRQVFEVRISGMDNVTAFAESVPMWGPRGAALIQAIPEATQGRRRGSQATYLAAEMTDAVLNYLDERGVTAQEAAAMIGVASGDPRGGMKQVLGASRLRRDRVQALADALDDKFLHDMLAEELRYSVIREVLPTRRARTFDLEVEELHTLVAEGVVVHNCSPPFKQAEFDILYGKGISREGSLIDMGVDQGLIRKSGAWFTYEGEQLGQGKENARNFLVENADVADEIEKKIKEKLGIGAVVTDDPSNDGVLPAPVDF
# [8] = viability loss in THP-1 monocytes – THP-1 cells, cytotoxicity control for Vif-APOBEC3G degradation inhibitor project, dose response (AID 1117359); assay type: functional; conditions: THP-1
# [9] = A Cell Based Secondary Assay To Explore Cytotoxicity of Compounds that Sensitize Mycobacterium Tuberculosis to Beta-Lactam Antibiotics.; assay type: functional
# [10] = target: T4, E3 ubiquitin-protein ligase XIAP (Homo sapiens, UniProt P98170); test: small molecules displacing peptide from XIAP – biochemical, IAP family, fluorescence polarization (AID 1018); assay type: functional
# [11] = target: T4, E3 ubiquitin-protein ligase XIAP; test: Counter Screen using XIAP-Bir3 for Chemical Antagonists of Bir1/2 domains of IAP-family anti-apoptotic proteins. [Related pubchem assays (depositor defined):AID1018, AID1449, AID1514, AID1638, AID1749, AID1750, AID488957, AID488963]
# HEK293 = test: EBV LMP1 TES2 canonical NF-kB signalling blockers – cell-based, HEK293, luciferase, cherry-pick, dose response (AID 588343); assay type: functional; conditions: Homo sapiens
# [12] = target: T5, Mannose-6-phosphate isomerase (Homo sapiens, UniProt P34949); test: MPI inhibition at elevated mannose 6-phosphate – biochemical, fluorescence intensity, high mannose 6-phosphate, primary screen (AID 1220)
# T5 sequence (P34949 whole entry): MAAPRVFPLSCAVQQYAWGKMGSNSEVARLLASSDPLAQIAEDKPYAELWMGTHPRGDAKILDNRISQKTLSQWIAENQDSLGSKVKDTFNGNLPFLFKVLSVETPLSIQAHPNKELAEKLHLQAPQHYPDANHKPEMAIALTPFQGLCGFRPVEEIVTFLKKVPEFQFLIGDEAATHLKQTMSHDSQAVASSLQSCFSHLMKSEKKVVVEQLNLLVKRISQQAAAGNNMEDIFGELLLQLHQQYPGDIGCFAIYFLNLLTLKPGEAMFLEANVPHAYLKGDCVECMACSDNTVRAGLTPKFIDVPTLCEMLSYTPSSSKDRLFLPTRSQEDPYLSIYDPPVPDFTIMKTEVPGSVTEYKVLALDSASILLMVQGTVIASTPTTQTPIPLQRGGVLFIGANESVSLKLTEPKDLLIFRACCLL
# [13] = target: Induced myeloid leukemia cell differentiation protein Mcl-1 (Homo sapiens, UniProt Q07820); assay type: functional
# [14] = Luminescence-based cell-based high throughput dose response assay to identify activators of the DAF-12 from the parasite S. stercoralis (ssDAF-12).; assay type: functional
# [15] = target: T6, Oxysterols receptor LXR-beta (Homo sapiens, UniProt P55055); test: LXR agonists, Gal4 luciferase reporter, dose response, counter-screen for ssDAF-12 agonist project, cell-based, luminescence, HEK293, S. stercoralis campaign (AID 720737); assay type: functional; conditions: read-out: IC50 (the source's name)
# T6 sequence (P55055 whole entry): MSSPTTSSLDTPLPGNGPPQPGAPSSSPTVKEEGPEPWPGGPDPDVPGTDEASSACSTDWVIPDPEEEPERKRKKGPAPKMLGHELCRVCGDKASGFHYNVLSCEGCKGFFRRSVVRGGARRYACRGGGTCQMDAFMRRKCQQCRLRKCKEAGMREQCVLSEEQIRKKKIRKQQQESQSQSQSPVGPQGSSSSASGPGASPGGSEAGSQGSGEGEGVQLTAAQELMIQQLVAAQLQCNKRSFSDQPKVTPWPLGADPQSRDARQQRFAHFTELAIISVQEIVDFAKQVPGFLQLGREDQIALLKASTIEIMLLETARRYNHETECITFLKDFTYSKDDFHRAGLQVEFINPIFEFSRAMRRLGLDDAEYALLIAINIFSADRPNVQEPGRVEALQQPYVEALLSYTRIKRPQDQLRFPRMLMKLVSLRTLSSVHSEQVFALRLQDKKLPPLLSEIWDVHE
# [16] = Luminescence Cell-Based Dose Retest to Confirm Inhibitors of Cancer Stem Cells. [Related pubchem assays (depositor defined):AID2717, AID2721]; assay type: functional; conditions: Homo sapiens
# Melanocortin receptor 4 = Melanocortin receptor 4 (Homo sapiens, UniProt P32245); assay type: functional, cell-based;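 note: Cell-based assay with luminescence read-out, confirmatory dose-response testing for agonist activity of biased ligands at MC4R; human U2OS cells with tagged receptor and beta-arrestin; potency of agonists that increase receptor coupling to beta-arrestin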
# [17] = target: T7, Ubiquitin-conjugating enzyme E2 N (Homo sapiens, UniProt P61088); assay type: functional;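 note: Dose-response confirmation in a TR-FRET assay detecting UBC13-driven polyubiquitin chain formation, inhibition measured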
# T7 sequence (P61088 whole entry): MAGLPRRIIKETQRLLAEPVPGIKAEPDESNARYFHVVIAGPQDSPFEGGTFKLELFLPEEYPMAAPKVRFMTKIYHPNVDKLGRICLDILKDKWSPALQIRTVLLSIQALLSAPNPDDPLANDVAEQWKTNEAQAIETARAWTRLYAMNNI
# [18] = activation of miR-122 Renilla sensor silencing – cell-based, Huh7 psiCHECK-miR122, Renilla luciferase, cherry-picked, dose response (AID 651956); assay type: functional;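 note: huh7 hepatoma cells stably carrying a psiCHECK-2 miR-122 sensor plasmid; renilla luciferase signal reporting endogenous miR-122 activity after 48 h compound exposure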
# [19] = target: T8, DNA repair protein RAD52 homolog (Homo sapiens, UniProt P43351); assay type: functional, biochemical
# T8 sequence (P43351 whole entry): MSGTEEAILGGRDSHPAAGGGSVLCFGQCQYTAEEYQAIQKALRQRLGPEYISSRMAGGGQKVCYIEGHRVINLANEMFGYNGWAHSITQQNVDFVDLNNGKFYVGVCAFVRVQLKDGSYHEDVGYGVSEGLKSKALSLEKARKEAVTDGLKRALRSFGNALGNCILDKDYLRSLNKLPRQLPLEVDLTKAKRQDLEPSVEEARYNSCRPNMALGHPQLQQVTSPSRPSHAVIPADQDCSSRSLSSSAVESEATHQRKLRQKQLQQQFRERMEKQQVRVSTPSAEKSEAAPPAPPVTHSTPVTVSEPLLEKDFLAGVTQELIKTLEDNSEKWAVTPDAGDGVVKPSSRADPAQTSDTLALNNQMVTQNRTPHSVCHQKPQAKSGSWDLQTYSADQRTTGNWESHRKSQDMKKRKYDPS
# Genome polyprotein = Genome polyprotein (dengue virus type 2, UniProt P29990); test: flavivirus cap methylation enzyme inhibition – biochemical, confirmation dose response, primary screen (AID 588689); assay type: functional
# Chain of Genome polyprotein (P29990 2492-3391 limits assumed): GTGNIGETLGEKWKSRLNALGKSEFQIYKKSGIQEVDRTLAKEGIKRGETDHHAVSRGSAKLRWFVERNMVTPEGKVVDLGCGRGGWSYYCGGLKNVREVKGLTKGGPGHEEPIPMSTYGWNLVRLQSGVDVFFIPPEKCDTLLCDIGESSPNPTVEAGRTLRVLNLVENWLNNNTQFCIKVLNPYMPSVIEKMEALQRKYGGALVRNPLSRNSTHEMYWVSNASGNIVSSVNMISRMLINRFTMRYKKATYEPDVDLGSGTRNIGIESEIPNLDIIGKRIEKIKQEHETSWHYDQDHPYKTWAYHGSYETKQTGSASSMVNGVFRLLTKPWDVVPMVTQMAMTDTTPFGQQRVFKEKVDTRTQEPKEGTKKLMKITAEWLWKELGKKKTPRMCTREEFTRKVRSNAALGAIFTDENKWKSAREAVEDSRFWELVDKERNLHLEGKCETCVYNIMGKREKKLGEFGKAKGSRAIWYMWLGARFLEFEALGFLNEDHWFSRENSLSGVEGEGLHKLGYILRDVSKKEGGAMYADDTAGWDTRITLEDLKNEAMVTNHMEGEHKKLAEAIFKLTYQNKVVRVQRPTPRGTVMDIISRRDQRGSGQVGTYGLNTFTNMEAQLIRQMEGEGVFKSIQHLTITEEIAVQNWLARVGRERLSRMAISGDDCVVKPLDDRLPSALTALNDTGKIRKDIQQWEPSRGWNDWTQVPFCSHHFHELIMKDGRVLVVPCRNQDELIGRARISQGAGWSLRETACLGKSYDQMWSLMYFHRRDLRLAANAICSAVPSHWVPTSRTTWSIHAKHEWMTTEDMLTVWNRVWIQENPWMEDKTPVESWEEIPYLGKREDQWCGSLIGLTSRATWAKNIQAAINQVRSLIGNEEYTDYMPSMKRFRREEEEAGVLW
# T4 sequence (P98170 whole entry): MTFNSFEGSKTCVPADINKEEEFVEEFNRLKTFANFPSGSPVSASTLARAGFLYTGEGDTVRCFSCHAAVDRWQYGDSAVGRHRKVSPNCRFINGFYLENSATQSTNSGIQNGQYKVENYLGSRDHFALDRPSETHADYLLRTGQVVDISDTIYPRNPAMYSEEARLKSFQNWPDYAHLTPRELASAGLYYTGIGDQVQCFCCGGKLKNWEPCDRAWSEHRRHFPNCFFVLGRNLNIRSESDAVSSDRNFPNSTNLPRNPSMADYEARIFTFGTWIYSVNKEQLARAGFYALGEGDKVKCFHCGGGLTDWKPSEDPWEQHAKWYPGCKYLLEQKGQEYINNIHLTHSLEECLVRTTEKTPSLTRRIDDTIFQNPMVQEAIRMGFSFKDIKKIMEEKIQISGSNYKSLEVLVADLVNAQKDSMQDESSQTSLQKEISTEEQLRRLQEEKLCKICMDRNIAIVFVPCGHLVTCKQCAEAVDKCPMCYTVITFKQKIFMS
# Chain of Melanocortin receptor 4 (P32245 whole entry): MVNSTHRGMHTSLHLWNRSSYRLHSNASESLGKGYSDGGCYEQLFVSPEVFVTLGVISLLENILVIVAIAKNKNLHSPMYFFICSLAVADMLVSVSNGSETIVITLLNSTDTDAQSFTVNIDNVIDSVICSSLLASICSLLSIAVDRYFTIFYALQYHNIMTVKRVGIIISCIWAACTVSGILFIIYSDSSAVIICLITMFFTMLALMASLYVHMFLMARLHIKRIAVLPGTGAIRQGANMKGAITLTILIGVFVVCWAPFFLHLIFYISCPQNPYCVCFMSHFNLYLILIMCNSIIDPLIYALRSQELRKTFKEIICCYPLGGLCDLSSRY
# Chain of Voltage-dependent T-type calcium channel subunit alpha-1H (O95180 whole entry): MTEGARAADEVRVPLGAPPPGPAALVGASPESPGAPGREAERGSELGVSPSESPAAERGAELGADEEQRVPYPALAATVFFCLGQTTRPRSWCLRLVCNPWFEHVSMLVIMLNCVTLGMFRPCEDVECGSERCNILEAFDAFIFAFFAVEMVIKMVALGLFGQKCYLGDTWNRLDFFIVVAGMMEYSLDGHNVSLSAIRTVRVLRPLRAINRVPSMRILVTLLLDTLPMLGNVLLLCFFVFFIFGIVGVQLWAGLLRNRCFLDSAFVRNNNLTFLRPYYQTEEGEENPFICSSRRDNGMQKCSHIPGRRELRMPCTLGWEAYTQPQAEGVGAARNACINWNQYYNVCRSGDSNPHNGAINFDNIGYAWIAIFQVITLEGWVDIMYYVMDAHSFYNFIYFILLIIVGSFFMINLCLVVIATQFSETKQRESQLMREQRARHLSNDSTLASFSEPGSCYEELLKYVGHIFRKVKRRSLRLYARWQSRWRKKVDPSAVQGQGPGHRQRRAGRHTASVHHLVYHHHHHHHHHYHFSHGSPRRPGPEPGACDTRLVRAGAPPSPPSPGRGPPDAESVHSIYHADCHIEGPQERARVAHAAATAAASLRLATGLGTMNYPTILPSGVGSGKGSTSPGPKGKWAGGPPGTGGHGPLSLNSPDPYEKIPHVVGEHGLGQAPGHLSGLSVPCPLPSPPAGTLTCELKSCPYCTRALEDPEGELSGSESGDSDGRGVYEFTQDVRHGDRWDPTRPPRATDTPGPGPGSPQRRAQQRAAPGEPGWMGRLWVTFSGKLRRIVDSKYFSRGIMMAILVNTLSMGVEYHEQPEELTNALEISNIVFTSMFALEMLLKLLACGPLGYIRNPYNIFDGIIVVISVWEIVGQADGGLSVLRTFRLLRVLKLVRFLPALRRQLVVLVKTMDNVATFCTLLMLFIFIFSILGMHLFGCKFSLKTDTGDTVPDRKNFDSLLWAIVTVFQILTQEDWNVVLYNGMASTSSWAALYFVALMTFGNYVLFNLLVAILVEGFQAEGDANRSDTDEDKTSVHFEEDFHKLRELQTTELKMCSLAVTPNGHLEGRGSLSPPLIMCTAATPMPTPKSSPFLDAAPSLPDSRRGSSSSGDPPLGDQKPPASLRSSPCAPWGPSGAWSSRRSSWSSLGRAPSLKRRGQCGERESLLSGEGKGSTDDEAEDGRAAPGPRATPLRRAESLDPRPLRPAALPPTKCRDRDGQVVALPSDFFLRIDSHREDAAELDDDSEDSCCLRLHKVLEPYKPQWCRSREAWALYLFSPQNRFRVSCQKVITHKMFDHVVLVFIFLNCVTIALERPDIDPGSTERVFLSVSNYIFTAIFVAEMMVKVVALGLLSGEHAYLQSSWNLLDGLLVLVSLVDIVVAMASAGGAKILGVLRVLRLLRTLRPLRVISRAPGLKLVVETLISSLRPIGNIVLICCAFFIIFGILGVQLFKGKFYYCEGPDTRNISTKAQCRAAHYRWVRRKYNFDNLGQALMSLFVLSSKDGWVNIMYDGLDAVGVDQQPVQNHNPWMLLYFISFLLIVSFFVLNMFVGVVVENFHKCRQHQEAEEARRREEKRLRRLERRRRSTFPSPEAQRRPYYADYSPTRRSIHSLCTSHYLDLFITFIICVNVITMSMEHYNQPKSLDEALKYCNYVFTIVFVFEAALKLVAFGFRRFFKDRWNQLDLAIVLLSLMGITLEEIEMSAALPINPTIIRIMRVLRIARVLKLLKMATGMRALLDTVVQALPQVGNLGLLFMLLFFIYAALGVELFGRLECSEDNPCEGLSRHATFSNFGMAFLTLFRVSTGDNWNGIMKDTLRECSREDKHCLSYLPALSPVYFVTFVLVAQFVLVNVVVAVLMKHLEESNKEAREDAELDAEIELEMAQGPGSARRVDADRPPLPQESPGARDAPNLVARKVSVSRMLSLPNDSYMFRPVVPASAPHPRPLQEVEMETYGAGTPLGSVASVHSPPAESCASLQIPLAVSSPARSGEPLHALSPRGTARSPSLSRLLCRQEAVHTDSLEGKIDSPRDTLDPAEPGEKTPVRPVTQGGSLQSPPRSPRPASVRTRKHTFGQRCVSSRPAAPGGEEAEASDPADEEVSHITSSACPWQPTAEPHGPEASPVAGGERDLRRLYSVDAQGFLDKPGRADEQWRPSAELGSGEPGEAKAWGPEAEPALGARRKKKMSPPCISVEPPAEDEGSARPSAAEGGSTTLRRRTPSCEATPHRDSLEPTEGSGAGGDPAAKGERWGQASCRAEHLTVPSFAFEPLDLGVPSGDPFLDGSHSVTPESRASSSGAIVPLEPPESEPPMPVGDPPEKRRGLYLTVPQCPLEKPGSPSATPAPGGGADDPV
# Chain of Induced myeloid leukemia cell differentiation protein Mcl-1 (Q07820 whole entry): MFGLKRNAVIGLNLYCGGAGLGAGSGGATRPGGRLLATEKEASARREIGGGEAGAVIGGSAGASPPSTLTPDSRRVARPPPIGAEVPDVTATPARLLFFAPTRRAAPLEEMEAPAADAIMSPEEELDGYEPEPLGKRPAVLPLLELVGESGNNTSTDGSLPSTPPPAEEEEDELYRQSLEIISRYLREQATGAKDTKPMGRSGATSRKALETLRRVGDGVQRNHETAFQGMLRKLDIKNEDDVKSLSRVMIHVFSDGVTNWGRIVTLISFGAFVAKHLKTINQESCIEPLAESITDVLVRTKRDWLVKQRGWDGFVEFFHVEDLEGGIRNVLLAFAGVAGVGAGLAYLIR
compound,measurement,setting,value
Cc1ccc(OCC(O)Cn2c(=N)n(Cc3ccccc3)c3ccccc32)cc1 (stereo not given),EC50,[1],4.31 µM (active)
same,EC50,[2],4.11 µM (active)
same,AC50,[3],7.65 µM (active)
same,AC50,[4],14.4 µM (active)
same,EC50,[5],4.53 µM (active)
COc1cc(/C=C2/C(=O)N(c3ccc([N+](=O)[O-])cc3)N=C2N2CCOCC2)ccc1O,AC50,[6],19.7 µM (active)
same,IC50,[7],> 128 µM (inactive)
same,EC50,Protein RecA,6.68 µM (active)
CCC1C/C(=C/c2ccco2)C(=O)/C(=C/c2ccco2)C1 (stereo not given),CC50,[8],> 40 µM (active)
COc1ccc(-c2csc(NC(C)c3nc4cc(Cl)c(Cl)cc4n3CCCO)n2)cc1 (stereo not given),CC50,[9],15.4 µM (active)
COc1ccc(-n2c(SCC(=O)Nc3cc(C)on3)nc3c(c2=O)SCC3)cc1,IC50,[10],> 100 µM (not active)
same,IC50,[11],> 100 µM (inactive)
same,AC50,HEK293,98.6 µM (active)
CCN(Cc1ccccc1)Cc1nnnn1Cc1ccccc1,CC50,[8],> 40 µM (active)
CC(C)(C)OC(=O)N1CCC(NC(=O)c2[nH]cnc2C(=O)Nc2ccccc2)CC1,CC50,[9],> 40 µM (active)
Cc1c(C(=O)N/N=C/c2ccc(-c3ccccc3[N+](=O)[O-])o2)sc(N)c1C#N,IC50,[12],> 50 µM (not active)
same,IC50,[13],3.78 µM (active)
CC(=O)Nc1ccc(N2C(=O)CC(Sc3nc4ccccc4s3)C2=O)cc1 (stereo not given),IC50,[14],> 67.5 µM (inactive)
same,EC50,[15],> 67.5 µM (inactive)
c1ccc(-c2ncc3c(ccc4ccccc43)n2)cc1,IC50,[14],> 67.6 µM (inactive)
same,EC50,[15],> 67.6 µM (inactive)
CCCCCCOc1ccc(/C(C)=N/NC2=NCCN2)cc1,AC50,[16],3.05 µM (active)
same,EC50,Melanocortin receptor 4,> 89.1 µM (inactive)
same,IC50,[17],> 20 µM (inactive)
same,AC50,[18],22.2 µM (active)
same,AC50,[19],23 µM (active)
same,AC50,[3],16 µM (active)
same,AC50,[4],16.3 µM (active)
COc1ccccc1-c1ccc2c(c1)O[C@@H](CN(C)S(=O)(=O)c1ccc(F)cc1)[C@@H](C)CN([C@@H](C)CO)S2(=O)=O,AC50,[4],42.4 µM (active)
O=C(NCc1cccs1)C1CC(c2ccccc2O)=NO1 (stereo not given),IC50,[10],> 100 µM (not active)
same,IC50,[11],> 100 µM (inactive)
CCN1C(=O)c2ccccc2[S+]([O-])c2ccc(C(=O)N3CCCCCC3)cc21 (stereo not given),IC50,[10],> 100 µM (not active)
same,IC50,[11],> 100 µM (inactive)
Oc1ccc2ccccc2c1/C=N\C12CN3CCN(CN(C3)C1)C2,IC50,Genome polyprotein,53.9 µM (active)
same,IC50,[12],27.6 µM (active)
